≈ marks a conversion by molar mass, not a printed value.
Experiments:
[1] = Antioxidant activity assessed as DPPH radical scavenging activity; assay type: functional
Mus musculus [2] = experiment: Anxiolytic activity in mouse assessed as increase in time spent in open arm at 5 mg/kg, po measured after 60 mins by elevated plus maze test; assay type: functional; settings: 1 h
RAW264.7 [3] = experiment: Antiinflammatory activity in mouse RAW 264.7 cells assessed as inhibition of LPS-induced nitric oxide production measured after 48 hrs by Griess reagent assay; assay type: functional, cell-based; settings: RAW264.7, 48 h
Mus musculus [4] = experiment: Anxiolytic activity in mouse assessed as number of entries in open arm at 5 mg/kg, po measured after 60 mins by elevated plus maze test; assay type: functional; settings: 1 h
SGC-7901 = experiment: Cytotoxicity against human SGC-7901 cells assessed as reduction in cell viability; assay type: functional, cell-based
Bel-7402 = experiment: Cytotoxicity against human Bel-7402 cells assessed as reduction in cell viability; assay type: functional, cell-based
HL-60 [5] = experiment: Cytotoxicity against human HL-60 cells assessed as reduction in cell viability by MTT assay; assay type: functional, cell-based
RAW264.7 [6] = experiment: Antiinflammatory activity in mouse RAW264.7 cells assessed as reduction in LPS-induced nitric oxide production; assay type: functional, cell-based
[7] = Antioxidant activity assessed as hydrogen peroxide scavenging activity; assay type: functional
BV-2 [8] = experiment: Antiinflammatory activity in mouse BV2 cells assessed as reduction in LPS-induced nitric oxide production at 10 uM relative to control; assay type: functional; parameters: scale not given: the % may be the effect or the level left
M14 = experiment: Cytotoxicity against human M14 cells assessed as reduction in cell viability; assay type: functional, cell-based
NCI-H460 = experiment: Cytotoxicity against human NCI-H460 cells assessed as reduction in cell viability; assay type: functional, cell-based
BV-2 [9] = experiment: Antiinflammatory activity in mouse BV2 cells assessed as reduction in LPS-induced nitric oxide production; assay type: functional, cell-based
K562 = experiment: Cytotoxicity against human K562 cells assessed as reduction in cell viability; assay type: functional, cell-based
A549 = experiment: Cytotoxicity against human A549 cells assessed as reduction in cell viability; assay type: functional, cell-based
HL-60 [10] = experiment: Cytotoxicity against human HL-60 cells assessed as reduction in cell viability; assay type: functional, cell-based; settings: hl-60
Pichia kudriavzevii = experiment: Antifungal activity against Candida krusei assessed as inhibition of fungal growth measured after 48 hrs by CLSI based agar dilution method; assay type: functional, organism-based
[11] = Antioxidant activity assessed as ABTS radical scavenging activity; assay type: functional
Staphylococcus aureus [12] = experiment: Antibacterial activity against Staphylococcus aureus assessed as inhibition of bacterial growth; assay type: functional, organism-based
[13] = tested on: Staphylococcus epidermidis; experiment: Antibacterial activity against Staphylococcus epidermidis assessed as reduction in bacterial growth; assay type: functional, organism-based
RAW264.7 [14] = experiment: Antiinflammatory activity against mouse RAW264.7 cells assessed as inhibition of LPS-induced COX2 expression; assay type: functional, cell-based
RAW264.7 [15] = experiment: Antiinflammatory activity against mouse RAW264.7 cells assessed as inhibition of LPS-induced COX1 expression; assay type: functional, cell-based
[16] = Inhibition of elastase (unknown origin); parameters: species or system Homo sapiens
Staphylococcus aureus [17] = experiment: Antibacterial activity against Staphylococcus aureus ATCC 29213 assessed as inhibition of bacterial growth; assay type: functional, organism-based
Staphylococcus aureus [18] = experiment: Antibacterial activity against Staphylococcus aureus ATCC 25923 assessed as inhibition of bacterial growth; assay type: functional, organism-based
Staphylococcus aureus [19] = experiment: Antibacterial activity against Staphylococcus aureus ATCC 43300 assessed as inhibition of bacterial growth; assay type: functional, organism-based
CT26.WT = experiment: Cytotoxicity against mouse CT26.WT cells by MTT assay; assay type: functional, cell-based
B16-F10 = experiment: Cytotoxicity against mouse B16-F10 cells by MTT assay; assay type: functional, cell-based
CHO = experiment: Cytotoxicity against CHO cells by MTT assay; assay type: functional, cell-based; settings: Cricetulus griseus
MeWo = experiment: Cytotoxicity against human MeWo cells by MTT assay; assay type: functional, cell-based
HaCaT = experiment: Antiinflammatory activity against human HaCaT cells assessed as inhibition of PGE2 production; assay type: functional, cell-based
[20] = Inhibition of H2O2-induced ROS production in human HaCaT cells; assay type: functional, cell-based

With `Oc1ccc2c(c1)CCc1cc(O)cc(O)c1-2` the IC50 ([1]; read-out: IC50) was 16.2 µM.
`C[C@@H]1O[C@@H](OC[C@H]2O[C@@H](Oc3c(-c4ccc(O)c(O)c4)oc4cc(O)cc(O)c4c3=O)[C@H](O)[C@@H](O)[C@@H]2O)[C@H](O)[C@H](O)[C@H]1O` [RUTIN] gave an IC50 [1] of 2.5 µg/mL.
`C=Cc1c(C)c(O)cc2c1-c1ccc(O)c(C)c1CC2` showed a Time (Mus musculus [2]) of 58.8 s, an IC50 (RAW264.7 [3]) of 3.1 µM and an Activity (Mus musculus [4]) of 6.6.
Molecule `COC1=CC(=O)C2=C(CCc3cccc(O)c32)C1=O` [EPHEMERANTHOQUINONE B] has an IC50 (SGC-7901; Homo sapiens, SGC-7901, read-out: IC50) of 2.9 µg/mL, an IC50 (Bel-7402) of 1.8 µg/mL (≈ 7.02 µM) and an IC50 (HL-60 [5]) of 3 µM.
With `C=Cc1c(C)c(O)cc2c1ccc1c(C)c(O)ccc12` the IC50 (RAW264.7 [3]) was 3.2 µM.
`COc1cc(O)c2c(c1)CCc1cccc(O)c1-2` showed an EC50 [1] of 10 µM and an IC50 ([1]; read-out: IC50) of 21.4 µM.
`COc1cc(O)c2c(c1)CCc1cc(O)c(-c3c(OC)cc(O)c4c3ccc3cc(O)ccc34)cc1-2` gave an IC50 [1] of 12.9 µg/mL.
With `COc1cc2cc(O)cc(OC)c2c2c(O)cccc12` the IC50 (RAW264.7 [6]; Mus musculus, RAW264.7) was 24.1 µM, the IC50 [7] was 19 µM and the IC50 ([1]; read-out: IC50) was 6.8 µM.
For `Cc1c(O)cc2c3c1CCc1c(C)c(O)cc(c1-3)C2C`, the Activity (BV-2 [8]) was 11.2%.
In the case of `O=c1c(O)c(-c2ccc(O)c(O)c2)oc2cc(O)cc(O)c12` [QUERCETIN], the IC50 (RAW264.7 [6]; Mus musculus, RAW264.7) is reported as 6.6 µM.
Molecule `Cc1c(O)ccc2c1CCc1cc(O)cc(CO)c1-2` has an IC50 (RAW264.7 [6]; Mus musculus, RAW264.7) of 16 µM.
`COc1cc(O)cc2cc(O)c3cccc(OC)c3c12` gave an IC50 ([1]; read-out: IC50) of 59.8 µM.
`COC1=CC(=O)c2c(ccc3cccc(O)c23)C1=O` gave an IC50 (M14) of 1.5 µM and an IC50 (NCI-H460) of 5 µM.
`C=Cc1ccc(CO)c2c1-c1ccc(O)c(C)c1CC2` showed an IC50 (RAW264.7 [6]; Mus musculus, RAW264.7) of 14.4 µM.
For `COc1cc2c(c(OC)c1O)-c1ccc(O)cc1CC2` [FLAVANTHRIDIN], the IC50 [7] was 2 µM.
With `COc1cc(O)c2c(c1-c1c(OC)cc(O)c3c1CCc1cc(O)ccc1-3)CCc1cc(O)ccc1-2` the EC50 [1] was 7.7 µM.
`CNC(=N)NCCC[C@H](N)C(=O)O` [TILARGININE] showed an IC50 (BV-2 [9]) of 16.3 µM.
For `COc1cc(O)c2c(c1)CCc1cc(-c3c(OC)cc(O)c4c3CCc3cc(O)ccc3-4)c(O)cc1-2`, the IC50 (K562) was 2.8 µM, the IC50 (SGC-7901; sgc-7901) was 6.1 µM and the IC50 (A549) was 1.2 µM. For the same molecule, the IC50 (HL-60 [10]) was 4 µM.
`COc1cc(O)c2c(c1)CCc1cc(O)c(-c3c(/C=C/c4cccc(O)c4)cc(O)cc3OC)cc1-2` gave an EC50 [1] of 47.3 µM.
Molecule `OC(Cn1cncn1)(Cn1cncn1)c1ccc(F)cc1F` [FLUCONAZOLE] has an IC50 (Pichia kudriavzevii) of 32 µg/mL (≈ 104 µM).
`COc1cc(O)c2c(c1)CCc1cc(O)c(-c3c(OC)cc(O)c4c3CCc3cc(O)ccc3-4)cc1-2` showed an EC50 [1] of 26.7 µM.
`COc1c(O)cc2c3c1COc1cc(O)c(Cc4ccc(O)cc4)c(c1-3)CC2` showed an IC50 (RAW264.7 [6]; Mus musculus, RAW264.7) of 20.8 µM.
Work on `C=Cc1c(C)c(O)c(-c2c(O)c(C)c(C=C)c3c2ccc2c(C)c(O)ccc23)c2ccc3c(C)c(O)ccc3c12` yielded an Activity [11] of 85.2%.
`COc1cc(O)c2c(c1C)CCc1cc(O)c(C)cc1-2` gave an IC50 (Staphylococcus aureus [12]) of 12.5 µg/mL (≈ 46.2 µM) and an IC50 [13] of 12.5 µg/mL (≈ 46.2 µM).
`COC1=CC(=O)c2c(ccc3cc(OC)c(O)cc23)C1=O` showed an IC50 (RAW264.7 [14]) of 0.27 µM and an IC50 (RAW264.7 [15]) of 0.08 µM.
`COc1cc(OC)c2c(ccc3cc(OC)c(O)cc32)c1` gave an IC50 (RAW264.7 [14]) of 1.8 µM.
`C=Cc1cc(O)cc2c1-c1cc(-c3c(O)cc(C=C)c4c3ccc3c(C)c(O)ccc34)c(O)c(C)c1CC2` gave an IC50 (RAW264.7 [6]; Mus musculus, RAW264.7) of 7.4 µM.
With `C=Cc1c(C)c(O)cc2c1CCc1c-2ccc(O)c1C` the IC50 (RAW264.7 [3]) was 4.9 µM and the IC50 [16] was 5.5 µM.
`COc1cc(O)c(-c2c(O)cc(OC)c3c2ccc2cc(O)ccc23)c2c1-c1ccc(O)cc1CC2` [CIRRHOPETALANTHRIN] gave an IC50 (Staphylococcus aureus [17]) of 25 µg/mL (≈ 52 µM), an IC50 (Staphylococcus aureus [18]) of 25 µg/mL (≈ 52 µM) and an IC50 (Staphylococcus aureus [19]) of 25 µg/mL (≈ 52 µM).
With `O=c1[nH]cc(F)c(=O)[nH]1` [FLUOROURACIL] the IC50 (CT26.WT) was 5 µg/mL (≈ 38.4 µM), the IC50 (B16-F10) was 4 µg/mL (≈ 30.8 µM) and the IC50 (CHO) was 12 µg/mL (≈ 92.3 µM). For the same molecule, the IC50 (MeWo) was 8 µg/mL (≈ 61.5 µM).
`COc1c(O)cc2c3c1COc1cc(O)cc(c1-3)CC2` gave an IC50 (HaCaT) of 12.2 µM, an IC50 [20] of 8.8 µM and an IC50 [7] of 0.03 µM. It also gave an EC50 [1] of 8.8 µM and an IC50 ([1]; read-out: IC50) of 8.4 µM.
For `COC(C)c1cc(O)cc2ccc3c(C)c(O)ccc3c12` (stereo unspecified), the IC50 (RAW264.7 [6]; Mus musculus, RAW264.7) was 11.1 µM and the IC50 (RAW264.7 [6]; raw264.7) was 16.3 µM.

— ChEMBL document CHEMBL5244207, “Phenanthrenes: A Promising Group of Plant Secondary Metabolites” (J Nat Prod, 2018)
